Assay results published in patent US20240025862A1, “SUBSTITUTED N-PHENYLURACILS AND SALTS THEREOF, AND USE THEREOF AS HERBICIDAL ACTIVE SUBSTANCES” (Bayer Aktiengesellschaft, priority 2020, published 2024).

Assays:
Assay type in all cases: in vivo
Viola tricolor (VIOTR) = assay: Post-emergence herbicidal action, greenhouse pot test; details: Viola tricolor, 504 h, read-out: Post-emergence action against VIOTR
Outline: (§1)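 Activity was scored by eye about 3 weeks after treatment against untreated plants, where 100% means dead plants and 0% means no difference. Plants at the one-leaf stage received a foliar spray of WP or EC formulations in water plus 0.5% additive (600 l/ha, up to 20 g/ha). Plants were grown in sandy loam pots in a greenhouse for 2–3 weeks before spraying.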

[1] = system: Amaranthus retroflexus (AMARE); assay: as above; details: Amaranthus retroflexus, 504 h, rated visually after about 3 weeks vs untreated controls, 100% = plants have died
Outline: as §1

[2] = system: Pharbitis purpurea (PHBPU); assay: as above; details: Ipomoea purpurea, 504 h, read-out: Post-emergence action against PHBPU in %
Outline: as §1

Avena fatua (AVEFA) = assay: as above; details: Avena fatua, 504 h, 20 g/ha, rated visually after about 3 weeks vs untreated controls, 100% = plants have died, read-out: Post-emergence action at 20 g/ha against AVEFA in %
Outline: as §1

[3] = system: Abutilon theophrasti (ABUTH); assay: as above; details: Abutilon theophrasti, 504 h, rated visually after about 3 weeks vs untreated controls, 100% = plants have died
Outline: as §1

Lolium rigidum (LOLRI) = assay: as above; details: Lolium rigidum, 504 h, dosage 20 g/ha, read-out: Post-emergence action against LOLRI in %
Outline: as §1

Veronica persica (VERPE) = assay: as above; details: Veronica persica, 504 h, read-out: Post-emergence action against VERPE
Outline: as §1

[4] = system: Matricaria inodora (MATIN); assay: Post-emergence herbicidal action, greenhouse pot test (also comparative test C); details: Tripleurospermum inodorum, 504 h, read-out: Post-emergence action against MATIN in %
Outline: (§2)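 Greenhouse pot plants in sandy loam were sprayed post-emergence at the one-leaf stage (2–3 weeks after sowing) with WP or EC formulations plus 0.5% additive at 600 l/ha water. Activity was rated visually after about 3 weeks versus untreated controls (100% = dead, 0% = like control); rates were 20 g/ha or less, and 5 g/ha or less in the comparative test.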

[5] = system: Alopecurus myosuroides (ALOMY); assay: as above; details: Alopecurus myosuroides, 504 h, rated visually after about 3 weeks vs untreated controls, 100% = plants have died
Outline: as §2

[6] = system: Echinochloa crus-galli (ECHCG); assay: as above; details: Echinochloa crus-galli, 504 h, read-out: Post-emergence action against ECHCG in %
Outline: as §2

Setaria viridis (SETVI) = assay: as above; details: Setaria viridis, 504 h
Outline: as §2

Oryza sativa (ORYSA) = assay: Post-emergence crop plant compatibility, greenhouse pot test (also comparative test C); details: 1.25 g/ha, vs untreated controls
Outline: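 Visual damage versus untreated plants (0% = like control, 100% = plants died) was scored about 3 weeks after a post-emergence spray in greenhouse pots. Treatment: one-leaf stage, WP or EC in water at 600 l/ha with 0.5% additive; a/b/c mark different dosages on the same crop.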

[7] = system: Triticum aestivum (TRZAS); assay: Post-emergence crop plant compatibility, greenhouse pot test; details: 1.25 g/ha, vs untreated controls
Outline: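 Compatibility was scored as visual % effect against untreated controls about 3 weeks after spraying green plant parts at the one-leaf stage. Formulations (WP/EC) were applied in aqueous form with 0.5% additive, 600 l/ha, to greenhouse-grown pot plants.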

Cn1c(C(F)(F)F)cc(=O)n(-c2cc(Oc3ccccc3OCC(=O)OCC[N+](=O)[O-])c(Cl)cc2F)c1=O [I.7-183, 2-Nitroethyl (2-{2-chloro-4-fluoro-5-[3-methyl-2,6-dioxo-4-(trifluoromethyl)-3,6-dihydropyrimidin-1(2H)-yl]phenoxy}phenoxy)acetate]
pest or weed control at 1.25 g/ha (Viola tricolor (VIOTR); 1.25 g/ha): 100%
pest or weed control at 5 g/ha (Viola tricolor (VIOTR); 5 g/ha): 100%
pest or weed control at 20 g/ha (Viola tricolor (VIOTR); 20 g/ha): 100%
pest or weed control at 1.25 g/ha ([1]; 1.25 g/ha, read-out: Post-emergence action at 1.25 g/ha against AMARE in %): 100%
pest or weed control at 5 g/ha ([1]; 5 g/ha, read-out: Post-emergence action at 5 g/ha against AMARE in %): 100%
pest or weed control at 20 g/ha ([1]; 20 g/ha, read-out: Post-emergence action at 20 g/ha against AMARE in %): 100%
pest or weed control at 1.25 g/ha ([2]; dosage 1.25 g/ha): 80%
pest or weed control at 5 g/ha ([2]; dosage 5 g/ha): 100%
pest or weed control at 20 g/ha ([2]; dosage 20 g/ha): 100%
pest or weed control at 20 g/ha (Avena fatua (AVEFA)): 90%
pest or weed control at 1.25 g/ha ([3]; 1.25 g/ha, read-out: Post-emergence action at 1.25 g/ha against ABUTH in %): 100%
pest or weed control at 5 g/ha ([3]; 5 g/ha, read-out: Post-emergence action at 5 g/ha against ABUTH in %): 100%
pest or weed control at 20 g/ha ([3]; 20 g/ha, read-out: Post-emergence action at 20 g/ha against ABUTH in %): 100%
pest or weed control at 20 g/ha (Lolium rigidum (LOLRI)): 80%
pest or weed control at 5 g/ha (Veronica persica (VERPE); 5 g/ha): 100%
pest or weed control at 20 g/ha (Veronica persica (VERPE); 20 g/ha): 100%
pest or weed control at 1.25 g/ha ([4]; dosage 1.25 g/ha): 80%
pest or weed control at 5 g/ha ([4]; dosage 5 g/ha): 100%
pest or weed control at 20 g/ha ([4]; dosage 20 g/ha): 100%
pest or weed control at 5 g/ha ([5]; 5 g/ha, read-out: Post-emergence action at 5 g/ha against ALOMY in %): 80%
pest or weed control at 20 g/ha ([5]; 20 g/ha, read-out: Post-emergence action at 20 g/ha against ALOMY in %): 100%
pest or weed control at 5 g/ha ([6]; dosage 5 g/ha): 100%
pest or weed control at 20 g/ha ([6]; dosage 20 g/ha): 100%
pest or weed control at 20 g/ha (Setaria viridis (SETVI); 20 g/ha, read-out: Post-emergence action against SETVI): 100%
pest or weed control at 1.25 g/ha (Setaria viridis (SETVI); dosage 1.25 g/ha, read-out: Post-emergence action against SETVI in %): 100%
pest or weed control at 5 g/ha (Setaria viridis (SETVI); dosage 5 g/ha, read-out: Post-emergence action against SETVI in %): 100%
Post-emergence action against ORYSA (crop plant compatibility) (Oryza sativa (ORYSA)): 0%
Post-emergence action against TRZAS (crop plant compatibility) [7]: 20%
